Assay results as given in paper PMC12332404, “Cytochrome P450BM-3 and P450 11A1 retain Compound I (FeO^3+) chemistry with electrophilic substrates poised for Compound 0 (Fe^3+O2^−) reactions” (The Journal of Biological Chemistry, 2025).
Each block holds one compound with its values, some of them ahead of it.

How the values were obtained:
P450BM-3 (102A1) [1] = molecular target: T1, P450BM-3 (102A1) (Priestia megaterium, UniProt P14779); assay: NADPH oxidation and LC-MS hydroxylation rate ([…] min^-1) with purified enzyme; type: biochemical
T1 construct: gene cyp102A1
T1 sequence (P14779 1-1049): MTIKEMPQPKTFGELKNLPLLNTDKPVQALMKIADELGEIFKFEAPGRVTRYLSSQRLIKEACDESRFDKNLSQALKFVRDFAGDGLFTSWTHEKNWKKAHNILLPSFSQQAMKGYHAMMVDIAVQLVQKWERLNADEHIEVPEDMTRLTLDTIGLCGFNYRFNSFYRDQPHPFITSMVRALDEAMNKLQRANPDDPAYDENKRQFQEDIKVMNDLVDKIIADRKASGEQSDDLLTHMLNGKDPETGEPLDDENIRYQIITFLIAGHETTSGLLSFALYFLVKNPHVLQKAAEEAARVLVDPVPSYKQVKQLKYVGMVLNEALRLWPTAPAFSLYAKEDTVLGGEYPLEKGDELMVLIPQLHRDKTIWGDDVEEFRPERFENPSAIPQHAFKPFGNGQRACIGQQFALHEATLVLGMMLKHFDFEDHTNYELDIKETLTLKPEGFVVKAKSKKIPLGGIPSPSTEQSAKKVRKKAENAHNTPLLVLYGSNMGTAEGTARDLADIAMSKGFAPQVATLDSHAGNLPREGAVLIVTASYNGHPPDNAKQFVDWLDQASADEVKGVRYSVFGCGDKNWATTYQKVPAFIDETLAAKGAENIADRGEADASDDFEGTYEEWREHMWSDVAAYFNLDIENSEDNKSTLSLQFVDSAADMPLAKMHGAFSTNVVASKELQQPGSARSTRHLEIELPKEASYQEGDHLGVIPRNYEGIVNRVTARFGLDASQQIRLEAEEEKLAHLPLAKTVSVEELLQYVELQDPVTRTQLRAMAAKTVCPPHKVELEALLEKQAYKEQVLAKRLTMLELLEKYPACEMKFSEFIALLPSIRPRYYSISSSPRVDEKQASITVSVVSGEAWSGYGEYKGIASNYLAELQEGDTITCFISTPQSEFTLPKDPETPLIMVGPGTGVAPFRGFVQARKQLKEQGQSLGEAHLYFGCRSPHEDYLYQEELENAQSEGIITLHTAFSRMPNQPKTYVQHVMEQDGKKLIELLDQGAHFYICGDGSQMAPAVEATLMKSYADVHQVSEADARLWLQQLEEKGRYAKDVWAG

P450BM-3 (102A1) [2] = molecular target: T1, P450BM-3 (102A1); assay: as above; type: biochemical; remark: listed apart in the source
P450 11A1 = molecular target: T2, P450 11A1 (Homo sapiens, UniProt P05108); assay: UV-vis spectral binding titration (Type II behavior); LC-MS turnover
T2 construct: gene CYP11A1
T2 sequence (P05108 40-521): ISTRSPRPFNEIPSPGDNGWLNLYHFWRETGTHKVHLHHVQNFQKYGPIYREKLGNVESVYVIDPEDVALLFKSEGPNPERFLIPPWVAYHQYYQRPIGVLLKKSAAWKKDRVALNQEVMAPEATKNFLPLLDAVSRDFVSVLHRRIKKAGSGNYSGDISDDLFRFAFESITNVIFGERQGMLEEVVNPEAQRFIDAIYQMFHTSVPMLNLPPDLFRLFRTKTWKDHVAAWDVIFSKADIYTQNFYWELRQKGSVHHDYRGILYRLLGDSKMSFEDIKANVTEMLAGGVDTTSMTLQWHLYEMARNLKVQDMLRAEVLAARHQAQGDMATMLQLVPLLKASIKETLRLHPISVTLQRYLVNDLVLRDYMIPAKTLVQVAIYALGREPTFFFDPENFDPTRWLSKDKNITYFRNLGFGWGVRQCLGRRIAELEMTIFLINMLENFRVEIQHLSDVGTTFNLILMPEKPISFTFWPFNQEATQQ

P450BM-3 (102A1) [3] = molecular target: T1, P450BM-3 (102A1); assay: UV-vis spectral binding titration (Type I shift, […] to […] nm)
P450BM-3 (102A1) [4] = molecular target: T1, P450BM-3 (102A1); assay: NADPH oxidation and LC-MS hydroxylation rate ([…] min^-1) with purified enzyme; type: biochemical; remark: listed apart in the source

SMILES: CCCCCCCCCCCC(=O)O [C12:0, dodecanoic acid]
NADPH oxidation and LC-MS hydroxylation rate (2.4 min^-1) with purified enzyme (P450BM-3 (102A1) [1]): 2.4 min⁻¹

NADPH oxidation and LC-MS hydroxylation rate (100 min^-1) with purified enzyme (P450BM-3 (102A1) [2]): 100 min⁻¹
SMILES: CCCCCCCCCCCCCCCC(=O)O [C16:0, palmitic acid]

SMILES: CC(C)CCC(=O)[C@@H](C)[C@H]1CC[C@H]2[C@@H]3CC=C4C[C@@H](O)CC[C@]4(C)[C@H]3CC[C@]12C [22-oxocholesterol]
Kd (P450 11A1): 43 ± 20 µM

Kd (P450BM-3 (102A1) [3]): ~250 µM
SMILES: CC(=O)CCCCCCCCCCC(=O)O [12-oxo C13:0, 12-oxotridecanoic acid]

SMILES: CCCCCCCCCCCCCC(=O)O [C14:0, tetradecanoic acid]
NADPH oxidation and LC-MS hydroxylation rate (73 min^-1) with purified enzyme (P450BM-3 (102A1) [4]): 73 min⁻¹
